Assay results as given in patent US20240284907A1, “NOVEL DERIVATIVES OF NON-CODED AMINO ACIDS AND THEIR USE AS HERBICIDES” (FortePhest LTD., priority 2021, published 2024).

Columns and labels:
Assay type in all cases: in vivo
[1] = test system: Seeds of Lettuce R. (Super-Jericho); test: Filter paper bioassay with lettuce seeds: germination, Fully Effective Concentration (FEC); conditions: lowest concentration mostly preventing lettuce seed germination, assessed after 6 days
Description: Materials: Seeds of Lettuce R. (Super-Jericho, non-sterilized) were obtained from Ben Shahar Moshe Ltd., 99% purity. The test compounds listed in the Table 2 below were synthetized de novo or purchased from different vendors.
Filter Paper Bioassays with Lettuce seeds: The protocol is following Bertin et al. 2009 and Movellan et al. 2014 with specified modifications as described below.
Seeds were placed on Whatman no. 1 filter paper (Whatman, Middlesex, U.K.) in Petri dishes (10 seeds per plate) with 2.0 ml of aqueous solution of a test material in concentration ranged from 0 (control) to 1 mmol/l were placed in a tray tilted at 45°. The trays were kept in dark for 48 hours and then transferred to the growth chamber with 6/18 dark/light cycle for 4 days. Each experiment was performed at least with two repeats.
The development of plants' radicle and shoots were visually assessed 6 days after the beginning of the test to determine Fully Effective Concentration (FEC) of a test material. In the context of the invention, FED is defined as the lowest concentration level of a test material that mostly preventing seeds germination.

[2] = test system: Seeds of Lettuce R. (Super-Jericho); test: Filter paper bioassay with lettuce seeds: germination and early plant development, Minimal Effective Concentration (MEC); conditions: lettuce seeds on filter paper, 0 to 1 mmol/l, visually assessed after 6 days
Procedure, shortened: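 Non-sterilized Super-Jericho lettuce seeds, 10 per dish, on filter paper wetted with aqueous test solution at 0–1 mmol/l. Kept 48 h dark, then 4 days at 6/18 dark/light. MEC is the lowest concentration causing no germination or radicle/shoot malformation by visual scoring at day 6; at least two repeats.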

[3] = test system: Romaine lettuce (Lactuca sativa L.) plants; test: Post-emergence herbicidal activity on potted Romaine lettuce plants (soil or foliar application); conditions: lettuce at 2 to 3 leaves, two weeks after treatment
Procedure: The tests were performed on Romaine lettuce (Lactuca sativa L.) plants at the stage 2 to 3 leaves. The plants were grown in mini-pots packed with soil, dimensions 2×2×5 cm, one plant per mini-pot. Test compounds were dissolved in 0.1% aqueous solution water solution of Silwet adjuvant to final concentrations ranging from 0 (Control) to 0.0001%. The test compounds were applied on soil (1 ml per pot) or foliar with airbrush (0.1 ml per pot). Each concentration was tested on 20 plants. Two weeks after the treatment the herbicidal effects of the respective test material were visually evaluated (aboveground part and roots. Then the aboveground part of the plants was neatly cut and weighed (wet weight) to assess the growth inhibition caused by the test compound. The growth inhibition (GI) was calculated as following: […]
Where Mt and Mc are median wet weight of treated and control plants, respectively. In the context of the invention, the herbicidal effect was assessed by concentration of the compound causing more than 85% of Growth Inhibition (GI) or irreversible damage of the plants (Table 3). Herbicidal activity of selected DHAAs is summarized in Table 4 (soil application) and Table 5 (Foliar application).

Compound	FEC (Fully Effective Concentration) [1]	Score (activity score of Minimal Effective Concentration, MEC) [2]	Score (test material causing more than 85% of Growth Inhibition or irreversible plant damage) ([3]; foliar application)	Score (test material causing more than 85% of Growth Inhibition or irreversible plant damage) ([3]; soil application)
2,2-difluoro-2-[5-(trifluoromethyl)-1,3-thiazol-2-yl]acetic acid [compound 5710]	0.100 mM	Strong (0.01 mM)		
2,2-difluoro[2-(trifluoromethyl)-1,3-thiazol-5-yl]acetic acid [compound 5700]	2.000 mM	Moderate (0.1 mM)		
2-(2,5-dichlorothiophen-3-yl)-2,2-difluoroacetamide [compound 5636]	0.100 mM	Strong (0.01 mM)		
2-chloro-4-(2-hydrazinylethyl)-1,3-thiazole [compound 5702]	2.000 mM	Moderate (0.1 mM)		
2-oxo-2-(pyridin-2-yl)ethyl(2-chloro-1,3-thiazol-4-yl)(difluoro)acetate [compound 5740]	0.050 mM	very strong		
2-oxo-2-phenylethyl(2-chloro-1,3-thiazol-4-yl)(difluoro)acetate [compound 5741]	0.050 mM	very strong		
3-(2,5-dichlorothiophen-3-yl)-2-oxopropanoic acid [compound 5612]	0.100 mM	Strong (0.01 mM)		
NC(=O)Cc1cc(Cl)sc1Cl [compound 5609, 2-(2,5-dichlorothiophen-3-yl)acetamide]	1.000 mM	Strong (0.01 mM)		
CCOC(=O)C(F)(F)c1csc(C(F)(F)F)n1 [compound 5781]		Strong (0.01 mM)	strong (0.01 to 0.05)	
O=C(O)/C(F)=C(\F)c1ccc(Br)nc1 [compound 6638, (2E)-3-(6-bromopyridin-3-yl)-2,3-difluoroprop-2-enoic acid]		Moderate (0.1 mM)		moderate (0.5)
O=C(O)C(F)(F)c1cccc(Cl)n1 [compound 6667, (6-chloropyridin-2-yl)(difluoro)acetic acid]		Strong (0.01 mM)		strong (0.01 to 0.05)
(2-bromopyridin-4-yl)acetic acid [compound 678]		Strong (0.01 mM)		weak (1.0)
(2E)-3-(2-bromopyridin-4-yl)-N-(4-hydroxyphenyl)prop-2-enamide [compound 6610]		Moderate (0.1 mM)		moderate (0.5)
[6-chloro-5-(trifluoromethyl)pyridin-2-yl](difluoro)acetic acid [compound 6671]		Strong (0.01 mM)		strong (0.01 to 0.05)
benzyl (6-bromopyridin-2-yl)(difluoro)acetate [compound 6646]		Strong (0.01 mM)		strong (0.01 to 0.05)
difluoro(6-fluoropyridin-2-yl)acetic acid [compound 6664]		Strong (0.01 mM)		strong (0.01 to 0.05)
ethyl 2-(2-bromo-1,3-thiazol-4-yl)acetate [compound 5663]		Moderate (0.1 mM)	strong (0.01 to 0.05)	moderate (0.5)
